Laboratory results from ChEMBL document CHEMBL3217505, “Synthesis and biological evaluation of a new class of anti-brucella compounds targeting histidinol dehydrogenase: -O-arylketones and -S-arylketones derived from histidine” (Medchemcomm, 2011).

Biological target: T1, Histidinol dehydrogenase (Brucella suis biovar 1 (strain 1330), UniProt Q8G2R2)
T1 sequence (Q8G2R2 whole entry): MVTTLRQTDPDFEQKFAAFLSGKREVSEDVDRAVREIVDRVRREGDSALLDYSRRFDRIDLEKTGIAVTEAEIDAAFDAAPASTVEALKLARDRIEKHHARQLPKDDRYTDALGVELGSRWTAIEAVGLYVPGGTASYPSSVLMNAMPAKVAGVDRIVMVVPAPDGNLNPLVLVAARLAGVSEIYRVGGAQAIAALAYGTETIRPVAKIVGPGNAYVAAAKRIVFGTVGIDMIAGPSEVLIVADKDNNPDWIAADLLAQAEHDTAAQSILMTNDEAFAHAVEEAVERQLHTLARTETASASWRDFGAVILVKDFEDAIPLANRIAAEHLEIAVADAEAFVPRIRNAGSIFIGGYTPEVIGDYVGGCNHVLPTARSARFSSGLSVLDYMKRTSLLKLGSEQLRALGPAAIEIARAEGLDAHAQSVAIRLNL
Assay: Inhibition of Brucella suis 1330 His6-tagged HDH expressed in Escherichia coli BL21 (DE3) using L-histidinol as substrate assessed as NADH formation preincubated for 5 mins followed by substrate addition

| Structure (SMILES) | IC50 |
| --- | --- |
| N[C@@H](Cc1c[nH]cn1)C(=O)CSc1c(F)c(F)c(F)c(F)c1F | 19200 nM |
| N[C@@H](Cc1c[nH]cn1)C(=O)CSc1ccc(Br)cc1 | 2800 nM |
| Cc1ccc(SCC(=O)[C@@H](N)Cc2c[nH]cn2)cc1 | 39500 nM |
| N[C@@H](Cc1c[nH]cn1)C(=O)COc1ccc2ccccc2c1 | 108 nM |
| N[C@@H](Cc1c[nH]cn1)C(=O)CS | 2100 nM |
| N[C@@H](Cc1c[nH]cn1)C(=O)CO | 24.3 nM |
| N[C@@H](Cc1c[nH]cn1)C(=O)CSc1ccccc1 | 7100 nM |
| N[C@@H](Cc1c[nH]cn1)C(=O)CSc1ccc(F)cc1 | 3100 nM |
| N[C@@H](Cc1c[nH]cn1)C(=O)COc1ccccc1 | 3650 nM |
| N[C@@H](Cc1c[nH]cn1)C(=O)CSc1ccc2ccccc2c1 | 3300 nM |
| Cc1ccc(OCC(=O)[C@@H](N)Cc2c[nH]cn2)cc1 | 208 nM |
| N[C@@H](Cc1c[nH]cn1)C(=O)COc1ccc(Br)cc1 | 1600 nM |
| N[C@@H](Cc1c[nH]cn1)C(=O)COc1ccc(F)cc1 | 4700 nM |
| N[C@@H](Cc1c[nH]cn1)C(=O)COc1c(F)c(F)c(F)c(F)c1F | 2780 nM |
